From patent publication US9023318B2, “Compounds with matrix-metalloproteinase inhibitory activity and imaging agents thereof” (Siemens Medical Solutions USA, Inc., priority 2011, dated 2015)

Columns and labels:
recombinant MMP-13 = recombinant MMP-13 (Homo sapiens, UniProt P45452); test: MMP compound screening, recombinant MMP-13 (SensoLyte 390 Generic MMP Activity Kit); assay type: biochemical; settings: read-out: inhibition of MMP-13 activity, % of total activity; for inhibition at 0.1 µM: 100 nM (0.1 uM) compound; for inhibition at 0.01 µM: 10 nM compound
Protocol: (§1) The activities were determined using Fluorimetric SensoLyte® 390 Generic MMP Activity Kit from Anaspec (cat #72202). This assay kit can detect the activity of several MMPs such as MMP-1, 2, 7, 8, 9, 13, 14, 15, 16 and 24.
(§2) For screening MMP compounds, activated 2 nM of recombinant MMP-2, 8, 9 or 13 are pre-incubated with MMP compound (inhibitor) for 30 min at 37° C. The substrate is added and the inhibition of MMP activity is expressed as % of total activity (without the inhibitor incubation).

recombinant MMP-8 = recombinant MMP-8 (Homo sapiens, UniProt P22894); test: MMP compound screening, recombinant MMP-8 (SensoLyte 390 Generic MMP Activity Kit); assay type: biochemical; settings: read-out: inhibition of MMP-8 activity, % of total activity; for inhibition at 0.1 µM: 100 nM (0.1 uM) compound; for inhibition at 0.01 µM: 10 nM compound
Protocol: as §1, §2

recombinant MMP-2 = target: T1, recombinant MMP-2 (Homo sapiens, UniProt P08253); test: MMP compound screening, recombinant MMP-2 (SensoLyte 390 Generic MMP Activity Kit); assay type: biochemical; settings: for IC50: 2 nM enzyme, 30 min pre-incubation at 37° C.; for inhibition at 0.01 µM: 10 nM compound
T1 sequence (P08253 110-660): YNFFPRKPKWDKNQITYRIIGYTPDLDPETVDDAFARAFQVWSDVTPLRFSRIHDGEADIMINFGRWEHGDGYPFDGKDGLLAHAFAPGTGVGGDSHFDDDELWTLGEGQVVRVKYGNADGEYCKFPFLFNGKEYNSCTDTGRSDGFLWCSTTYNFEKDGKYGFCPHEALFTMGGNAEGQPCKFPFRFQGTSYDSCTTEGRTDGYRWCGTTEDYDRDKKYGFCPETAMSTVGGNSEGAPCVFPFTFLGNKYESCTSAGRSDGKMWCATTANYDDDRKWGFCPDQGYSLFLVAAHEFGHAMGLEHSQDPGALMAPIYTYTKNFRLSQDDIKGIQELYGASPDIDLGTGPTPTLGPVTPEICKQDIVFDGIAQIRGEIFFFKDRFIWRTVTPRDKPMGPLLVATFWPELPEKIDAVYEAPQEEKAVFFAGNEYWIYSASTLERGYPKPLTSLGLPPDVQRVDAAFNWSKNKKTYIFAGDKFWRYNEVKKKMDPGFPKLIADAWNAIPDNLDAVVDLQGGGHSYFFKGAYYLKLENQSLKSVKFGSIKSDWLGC
Protocol: as §1, §2

[1] = Biodistribution of M005: tumor and tissue fluorescence scans; assay type: in vivo, mouse; settings: 4 h uptake time, Cy5 channel
Protocol: FIGS. 3-5 are mouse scans before and 4 hours after […] injection.

recombinant MMP-9 = recombinant MMP-9 (Homo sapiens, UniProt P14780); test: MMP compound screening, recombinant MMP-9 (SensoLyte 390 Generic MMP Activity Kit); assay type: biochemical; settings: for inhibition at 0.01 µM: 10 nM compound
Protocol: as §1, §2

MMP = MMP inhibition, general statement; assay type: biochemical
Protocol: as §1, §2

[2] = read-out: inhibition of MMP-2 activity, % of total activity
[3] = read-out: inhibition of MMP-9 activity, % of total activity

Sequence of recombinant MMP-8 (P22894 101-467, species assumed): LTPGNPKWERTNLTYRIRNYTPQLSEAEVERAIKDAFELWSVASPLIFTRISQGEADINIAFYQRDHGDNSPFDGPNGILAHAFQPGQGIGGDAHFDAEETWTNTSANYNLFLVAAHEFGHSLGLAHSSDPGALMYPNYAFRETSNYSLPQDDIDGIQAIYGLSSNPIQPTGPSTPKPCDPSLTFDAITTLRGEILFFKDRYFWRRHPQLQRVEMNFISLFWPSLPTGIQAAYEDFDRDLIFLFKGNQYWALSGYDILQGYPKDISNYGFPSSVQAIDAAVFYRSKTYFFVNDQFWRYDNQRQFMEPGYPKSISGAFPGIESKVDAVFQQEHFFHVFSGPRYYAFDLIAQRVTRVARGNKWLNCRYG
Sequence of recombinant MMP-9 (P14780 107-707 limits assumed, species assumed): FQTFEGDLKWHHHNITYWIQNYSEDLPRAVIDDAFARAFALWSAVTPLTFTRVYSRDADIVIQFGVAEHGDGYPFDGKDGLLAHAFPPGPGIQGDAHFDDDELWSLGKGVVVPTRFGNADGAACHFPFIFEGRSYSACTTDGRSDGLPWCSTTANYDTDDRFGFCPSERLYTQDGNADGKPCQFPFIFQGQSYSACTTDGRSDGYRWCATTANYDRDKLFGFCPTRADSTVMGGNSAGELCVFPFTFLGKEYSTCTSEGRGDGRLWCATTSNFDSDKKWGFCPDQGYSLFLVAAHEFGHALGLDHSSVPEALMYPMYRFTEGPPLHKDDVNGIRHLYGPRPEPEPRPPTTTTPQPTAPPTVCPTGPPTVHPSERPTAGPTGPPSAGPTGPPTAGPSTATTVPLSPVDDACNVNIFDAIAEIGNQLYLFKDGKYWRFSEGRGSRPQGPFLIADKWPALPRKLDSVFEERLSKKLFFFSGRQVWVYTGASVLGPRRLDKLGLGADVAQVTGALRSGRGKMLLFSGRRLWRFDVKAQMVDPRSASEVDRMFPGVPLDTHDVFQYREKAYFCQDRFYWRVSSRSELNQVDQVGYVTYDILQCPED

inhibition at 0.1 µM (recombinant MMP-13) [%] | inhibition at 0.1 µM (recombinant MMP-8) [%] | IC50 (recombinant MMP-2) [nM] | inhibition at 0.01 µM (recombinant MMP-13) [%] | inhibition at 0.01 µM (recombinant MMP-8) [%] | inhibition at 0.01 µM (recombinant MMP-2; [2]) [%] | inhibition at 0.01 µM (recombinant MMP-9; [3]) [%] | Compound | further results
99 | 92 | – | – | – | – | – | COc1ccc(-c2cn(CCN([C@@H](C(=O)NO)C(C)C)S(=O)(=O)c3ccc(OC)cc3)nn2)cc1 [M001] | –
97 | 97 | 5.2 | – | – | – | – | CCN1\C(=C/C=C/C=C/C2=[N+](CCCCCC(=O)NCCOCCOCCOCCn3cc(CN([C@@H](C(=O)NO)C(C)C)S(=O)(=O)c4ccc(OC)cc4)nn3)c3ccc4c(S(=O)(=O)O)cc(S(=O)(=O)[O-])cc4c3C2(C)C)C(C)(C)c2c1ccc1c(S(=O)(=O)O)cc(S(=O)(=O)O)cc21 [M003] | –
91 | 83 | 25 | – | – | – | – | COc1ccc(S(=O)(=O)N(Cc2cn(CCOCCOCCOCCNC(=O)CCCCC[N+]3=C(/C=C/C=C/C=C4\N(C)c5ccc6ccccc6c5C4(C)C)C(C)(C)c4c3ccc3ccccc43)nn2)[C@@H](C(=O)NO)C(C)C)cc1 [M004] | –
– | – | 2 | – | – | – | – | CCN1C(=CC=CC=CC2=[N+](CCCCCC(=O)NCCCCC(NC(=O)Cn3cc(CCCF)nn3)C(=O)NCCOCCOCCOCCn3cc(CN(C(C(=O)NO)C(C)C)S(=O)(=O)c4ccc(OC)cc4)nn3)c3ccc4c(S(=O)(=O)O)cc(S(=O)(=O)[O-])cc4c3C2(C)C)C(C)(C)c2c1ccc1c(S(=O)(=O)O)cc(S(=O)(=O)O)cc21 (centres unmarked) [M005] | uptake in tumor and tissue (fluorescence) ([1]; with and without tracer injection): uptake above background fluorescence of tissue; uptake into the brain ([1]; brain used as background tissue): no uptake of the tracer into the brain; IC50 (recombinant MMP-9; 2 nM enzyme, 30 min pre-incubation at 37° C.): 2.1 nM
99 | 100 | – | 96 | 94 | 64 | 89 | COc1ccc(S(=O)(=O)N(Cc2cn(CCOCCn3cc(CN([C@@H](C(=O)NO)C(C)C)S(=O)(=O)c4ccc(OC)cc4)nn3)nn2)[C@H](C(=O)NO)C(C)C)cc1 [M007] | inhibition at 0.1 µM (recombinant MMP-2; 100 nM (0.1 uM) compound, read-out: inhibition of MMP-2 activity, % of total activity): 95%; inhibition at 0.1 µM (recombinant MMP-9; 100 nM (0.1 uM) compound, read-out: inhibition of MMP-9 activity, % of total activity): 100%; MMP inhibition (in words) (MMP): good MMP inhibition
– | – | – | 82 | 95 | 82 | 78 | COc1ccc(S(=O)(=O)N(Cc2cn(CCOCCn3cc(CCCF)nn3)nn2)[C@@H](C(=O)NO)C(C)C)cc1 [M008] | –
– | – | – | 64 | 46 | 59 | – | COc1ccc(S(=O)(=O)N(Cc2cn(CCOCCOCCOCCNC(=O)CCC(NC(=O)Cn3cc(CCCF)nn3)C(=O)NCCOCCOCCOCCn3cc(CN([C@@H](C(=O)NO)C(C)C)S(=O)(=O)c4ccc(OC)cc4)nn3)nn2)[C@@H](C(=O)NO)C(C)C)cc1 (some centres unmarked) [M009] | inhibition of MMP-9 activity, % of total activity (recombinant MMP-9; concentration not given): 48%
– | – | – | 10 | 13 | 28 | 2 | COc1ccc(S(=O)(=O)N(Cc2cn(CCOCCOCCOCCNC(=O)CCC(NC(=O)Cn3cc(CCCF)nn3)C(=O)NCCOCCOCCOCCn3cc(CN([C@@H](C(=O)NOC(C)(C)C)C(C)C)S(=O)(=O)c4ccc(OC)cc4)nn3)nn2)[C@@H](C(=O)NO)C(C)C)cc1 (some centres unmarked) [M010] | –
– | – | – | 75 | 57 | 50 | 55 | COc1ccc(S(=O)(=O)N(Cc2cn(CCOCCNC(=O)c3cc(C(=O)NCCOCCn4cc(CN([C@@H](C(=O)NO)C(C)C)S(=O)(=O)c5ccc(OC)cc5)nn4)cc(-n4cc(CCCF)nn4)c3)nn2)[C@H](C(=O)NO)C(C)C)cc1 [M011] | –
– | – | – | 79 | 84 | 66 | 67 | COc1ccc(S(=O)(=O)N(Cc2cn(CCOCCNC(=O)c3cc(C(=O)O)cc(-n4cc(CCCF)nn4)c3)nn2)[C@@H](C(=O)NO)C(C)C)cc1 [M013] | –
